Drawing on patent publication US10457637B2, “Benzenesulfonamide derivatives as inverse agonists of retinoid-related orphan receptor gamma (RORγ(T))” (GALDERMA RESEARCH & DEVELOPMENT, priority 2014, dated 2019), this text covers IC50 for 28 molecules.

A value given as a limit tells only on which side of the number the result lay.

Sequence of ROR gamma ligand-binding domain (hRORg) (P51449 269-508): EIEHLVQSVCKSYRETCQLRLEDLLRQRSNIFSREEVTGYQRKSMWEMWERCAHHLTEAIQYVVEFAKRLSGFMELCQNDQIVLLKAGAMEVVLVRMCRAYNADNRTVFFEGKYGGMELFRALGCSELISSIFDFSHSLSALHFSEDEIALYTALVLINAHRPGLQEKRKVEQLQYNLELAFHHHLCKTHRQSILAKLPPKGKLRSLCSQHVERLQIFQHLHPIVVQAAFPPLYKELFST

In the assay the target is ROR gamma ligand-binding domain (hRORg) (Homo sapiens (Human), UniProt P51449). Kind of assay: GAL4-RORγ transactivation (luciferase reporter, HG5LN HeLa line). To be noted: 18 hours incubation. It counts as cell-based. An excerpt:
GAL4-RORγ Transactivation
The RORγ transactivation model was developed from the line HG5LN, which is a HeLa line that stably expresses a luciferase reporter gene controlled by a pentamer of the GAL4 recognition domain of yeast and of a β-globin promoter. The HG5LN line was stably transfected by the DNA-binding domain (DBD) of GAL4 fused to the ROR gamma ligand-binding domain (LBD). Molecules that inhibit the ROR gamma constitutive activity reduce the luciferase expression, thus leading to a reduction in the emitted luminescence.
The cells are seeded in 384-well plates (5000 cells in 45 μL/well of culture medium containing 10% fetal calf serum) and incubated for 4 hours at 37° C., 5% CO2. 5 μL of the test molecules (compounds described in the tables described above) are then added to each well and the plates are incubated for 18 hours at a temperature of 37° C. under 5% of CO2. 20 μL of luciferase substrate (Promega) are added to each well and the luminescence emitted is read by a microplate reader.
The luminescence units (“RLU”) are normalized by positive controls (“POS” containing a saturated concentration of benzenesulfonamide, N-(2,2,2-trifluoroethyl)-N-[4-[2,2,2-trifluoro-1-hydroxy-1-(trifluoromethyl)ethyl]phenyl]) and negative controls (“NEG” containing DMSO): % inhibition=((RLU−NEG)*100)/(POS−NEG). The IC50 values are calculated from a 4-parameter logistic model using the XLFit software (IDBS).
`CCc1ccc(N(CC(C)C)S(=O)(=O)c2ccc(NCC3CCS(=O)(=O)CC3)c(S(C)(=N)=O)c2)cc1` (stereo not shown) [compound 57, 4-(((1,1-dioxidotetrahydro-2H-thiopyran-4-yl)methyl)amino)-N-(4-ethylphenyl)-N-isobutyl-3-(S-methylsulfonimidoyl)benzenesulfonamide]: the 50% inhibitory concentration (IC50) was over 1000 nM. For `CCc1ccc(N(CC(C)C)S(=O)(=O)c2ccc(NCC3CCC(=O)NC3)c(S(C)(=N)=O)c2)cc1` (stereo not shown) [compound 58, N-(4-ethylphenyl)-N-isobutyl-3-(S-methylsulfonimidoyl)-4-(((6-oxopiperidin-3-yl)methyl)amino)benzenesulfonamide], the IC50 was over 1000 nM. Take `CCc1ccc(N(CC(C)C)S(=O)(=O)c2ccc(NCC3CNC(=O)C3)c(S(C)(=N)=O)c2)cc1` (stereo not shown) [compound 59, N-(4-ethylphenyl)-N-isobutyl-3-(S-methylsulfonimidoyl)-4-(((5-oxopyrrolidin-3-yl)methyl)amino)benzenesulfonamide]: the IC50 fell in the range of 100 to 1000 nM. `CCc1ccc(N(CC(C)C)S(=O)(=O)c2ccc(NCC3CCOCC3)c(S(N)(=O)=O)c2)cc1` [compound 67, 4-[(tetrahydropyran-4-ylmethyl)amino]benzene-1,3-disulfonic acid 3-amide 1-[(4-ethylphenyl)isobutylamide]] displayed an IC50 of 100 to 1000 nM.

`CCc1ccc(N(CC(C)C)S(=O)(=O)c2ccc3c(c2)[S+]([O-])CCN3CC2CCOCC2)cc1` (stereo not shown) [compound 71, 1-oxo-4-(tetrahydropyran-4-ylmethyl)-1,2,3,4-tetrahydro-1λ^4-benzo[1,4]thiazine-7-sulfonic acid (4-ethylphenyl)isobutylamide] came in with an IC50 of over 1000 nM. As for `CCc1ccc(N(CC(C)C)S(=O)(=O)c2ccc3c(c2)sc(=O)n3CC2CCOCC2)cc1` [compound 72], the half-maximal inhibitory concentration (IC50) lay in the range of 100 to 1000 nM. `CCc1ccc(N(CC(C)C)S(=O)(=O)c2ccc3c(c2)SC(C)(C)N3CC2CCOCC2)cc1` [compound 73, 2,2-dimethyl-3-(tetrahydropyran-4-ylmethyl)-2,3-dihydrobenzothiazole-6-sulfonic acid (4-ethylphenyl)isobutylamide] yielded an IC50 of over 1000 nM. `CCc1ccc(N(CC(C)C)S(=O)(=O)c2ccc3c(c2)[S+]([O-])C(C)(C)N3CC2CCOCC2)cc1` (stereo not shown) [compound 74, 2,2-dimethyl-1-oxo-3-(tetrahydropyran-4-ylmethyl)-2,3-dihydro-1H-1λ^4-benzothiazole-6-sulfonic acid (4-ethylphenyl)isobutylamide] returned an IC50 of 100 to 1000 nM. Molecule `CCc1ccc(N(CC(C)C)S(=O)(=O)c2ccc3c(c2)[S+]([O-])CN3CC2CCOCC2)cc1` (stereo not shown) [compound 75, 1-oxo-3-(tetrahydropyran-4-ylmethyl)-2,3-dihydro-1H-1λ^4-benzothiazole-6-sulfonic acid (4-ethylphenyl)isobutylamide] gave an IC50 of over 1000 nM. The molecule `CCc1ccc(N(CC(C)C)S(=O)(=O)c2ccc3c(c2)S(=N)(=O)CN3CC2CCOCC2)cc1` (stereo not shown) [compound 76, 1-imino-1-oxo-3-(tetrahydropyran-4-ylmethyl)-2,3-dihydro-1H-1λ^6-benzothiazole-6-sulfonic acid (4-ethylphenyl)isobutylamide] yielded an IC50 of over 1000 nM. `CCc1ccc(N(CC(C)C)S(=O)(=O)c2ccc(OCc3ccnc(OC)c3)c(S(C)(=N)=O)c2)cc1` (stereo not shown) [compound 77, N-(4-ethylphenyl)-N-isobutyl-4-((2-methoxypyridin-4-yl)methoxy)-3-(S-methylsulfonimidoyl)benzenesulfonamide] gave a concentration for half-maximal inhibition (IC50) of over 1000 nM. Consider `CCc1ccc(N(CC(C)C)S(=O)(=O)c2ccc(OC[C@H]3CNC(=O)O3)c(S(C)(=N)=O)c2)cc1` (stereo partly drawn) [compound 79, N-(4-ethylphenyl)-N-isobutyl-3-(S-methylsulfonimidoyl)-4-(((R)-2-oxooxazolidin-5-yl)methoxy)benzenesulfonamide], for which the concentration for half-maximal inhibition (IC50) is over 1000 nM.

`CCc1ccc(N(CC(C)C)S(=O)(=O)c2ccc(Oc3ccc(C#N)cc3)c(S(C)(=N)=O)c2)cc1` (stereo not shown) [compound 80, 4-(4-cyanophenoxy)-N-(4-ethylphenyl)-N-isobutyl-3-(S-methylsulfonimidoyl)benzenesulfonamide] came in with an IC50 of over 1000 nM.

With `CCc1ccc(N(CC(C)C)S(=O)(=O)c2ccc(NCC3CNC(=O)O3)c(S(C)(=N)=O)c2)cc1` (stereo not shown) [compound 82, N-(4-ethylphenyl)-N-isobutyl-3-(S-methylsulfonimidoyl)-4-(((2-oxooxazolidin-5-yl)methyl)amino)benzenesulfonamide], the 50% inhibitory concentration (IC50) lay within 100 to 1000 nM. As for `CCc1ccc(N(CC(C)C)S(=O)(=O)c2ccc(NC3CCS(=O)(=O)CC3)c(S(C)(=N)=O)c2)cc1` (stereo not shown) [compound 83, 4-((1,1-dioxidotetrahydro-2H-thiopyran-4-yl)amino)-N-(4-ethylphenyl)-N-isobutyl-3-(S-methylsulfonimidoyl)benzenesulfonamide], the figure is over 1000 nM. `CCc1ccc(N(CC(C)C)S(=O)(=O)c2ccc(NCC3CCN(C(C)=O)CC3)c(S(C)(=N)=O)c2)cc1` (stereo not shown) [compound 84, 4-(((1-acetylpiperidin-4-yl)methyl)amino)-N-(4-ethylphenyl)-N-isobutyl-3-(S-methylsulfonimidoyl)benzenesulfonamide] showed an IC50 of over 1000 nM.

On to `CCc1ccc(N(CC(C)C)S(=O)(=O)c2ccc(NC3CCC(=O)NC3)c(S(C)(=N)=O)c2)cc1` (stereo not shown) [compound 85, N-(4-ethylphenyl)-N-isobutyl-3-(S-methylsulfonimidoyl)-4-((6-oxopiperidin-3-yl)amino)benzenesulfonamide], for which the concentration for half-maximal inhibition (IC50) is over 1000 nM. With `CCc1ccc(N(CC(C)C)S(=O)(=O)c2ccc(NC3CCS(=O)(=O)C3)c(S(C)(=N)=O)c2)cc1` (stereo not shown) [compound 86, 4-((1,1-dioxidotetrahydrothiophen-3-yl)amino)-N-(4-ethylphenyl)-N-isobuytl-3-(S-methylsulfonimidoyl)benzenesulfonamide] the figure was 100 to 1000 nM; with `CCc1ccc(N(CC(C)C)S(=O)(=O)c2ccc(NCc3nonc3C)c(S(C)(=N)=O)c2)cc1` (stereo not shown) [compound 88, N-(4-ethylphenyl)-N-isobutyl-4-(((4-methyl-1,2,5-oxadiazol-3-yl)methyl)amino)-3-(S-methylsulfonimidoyl)benzenesulfonamide], over 1000 nM. `CCc1ccc(N(CC(C)C)S(=O)(=O)c2ccc(NCC3CN(C(=O)OC)C3)c(S(C)(=N)=O)c2)cc1` (stereo not shown) [compound 89, methyl 3-(((4-(N-(4-ethylphenyl)-N-isobutylsulfamoyl)-2-(S-methylsulfonimidoyl)phenyl)amino)methyl)azetidine-1-carboxylate] returned an IC50 of over 1000 nM.

In turn, `CCc1ccc(N(CC(C)C)S(=O)(=O)c2ccc(NCc3ccnc(C)c3)c(S(C)(=N)=O)c2)cc1` (stereo not shown) [compound 90, N-(4-ethylphenyl)-N-isobutyl-4-(((2-methylpyridin-4-yl)methyl)amino)-3-(S-methylsulfonimidoyl)benzenesulfonamide] returned a half-inhibitory concentration (IC50) of over 1000 nM. Molecule `CCc1ccc(N(CC(C)C)S(=O)(=O)c2ccc(NCC3CCN(C(=O)OC)CC3)c(S(C)(=N)=O)c2)cc1` (stereo not shown) [compound 93, methyl 4-(((4-(N-(4-ethylphenyl)-N-isobutylsulfamoyl)-2-(S-methylsulfonimidoyl)phenyl)amino)methyl)piperidine-1-carboxylate] displayed a half-maximal inhibitory concentration (IC50) of over 1000 nM.

Molecule `CCc1ccc(N(CC(C)C)S(=O)(=O)c2ccc(NCC3CCN(C(=O)OC)C3)c(S(C)(=N)=O)c2)cc1` (stereo not shown) [compound 94, methyl 3-(((4-(N-(4-ethylphenyl)-N-isobutylsulfamoyl)-2-(S-methylsulfonimidoyl)phenyl)amino)methyl)pyrrolidine-1-carboxylate] registered a half-maximal inhibitory concentration (IC50) of over 1000 nM. Consider `CCc1ccc(N(CC(C)C)S(=O)(=O)c2ccc(NCC3CC4(COC4)C3)c(S(C)(=N)=O)c2)cc1` (stereo not shown) [compound 95, 4-(((2-oxaspiro[3.3]heptan-6-yl)methyl)amino)-N-(4-ethylphenyl)-N-isobutyl-3-(S-methylsulfonimidoyl)benzenesulfonamide], for which the concentration for half-maximal inhibition (IC50) lay in the range of 100 to 1000 nM. In turn, `CCc1ccc(N(CC(C)C)S(=O)(=O)c2ccc(NCC3CCNC(=O)C3)c(S(C)(=N)=O)c2)cc1` (stereo not shown) [compound 96, 4-N-(4-ethylphenyl)-N-isobutyl-3-(S-methylsulfonimidoyl)-4-(((2-oxopiperidin-4-yl)methyl)amino)benzenesulfonamide] returned an IC50 of over 1000 nM. For the molecule `CCc1ccc(N(CC(C)C)S(=O)(=O)c2ccc(NCc3c(C)noc3C)c(S(C)(=N)=O)c2)cc1` (stereo not shown) [compound 97, 4-(((3,5-dimethylisoxazol-4-yl)methyl)amino)-N-(4-ethylphenyl)-N-isobutyl-3-(S-methylsulfonimidoyl)benzenesulfonamide], the IC50 fell in the range of 100 to 1000 nM. Molecule `CCc1ccc(N(CC(C)C)S(=O)(=O)c2ccc(NCC3CCN(C(C)=O)C3)c(S(C)(=N)=O)c2)cc1` (stereo not shown) [compound 100, 4-(((1-acetylpyrrolidin-3-yl)methyl)amino)-N-(4-ethylphenyl)-N-isobutyl-3-(S-methylsulfonimidoyl)benzenesulfonamide] showed a 50% inhibitory concentration (IC50) of over 1000 nM.

As to `CCc1ccc(N(CC(C)C)S(=O)(=O)c2ccc(NC[C@@H]3CNC(=O)O3)c(S(C)(=N)=O)c2)cc1` (stereo partly drawn) [compound 105, N-(4-ethylphenyl)-N-isobutyl-3-(S-methylsulfonimidoyl)-4-((((R)-2-oxooxazolidin-5-yl)methyl)amino)benzenesulfonamide], the half-maximal inhibitory concentration (IC50) was over 1000 nM.
